Data on four molecules can be found in patent publication EP4198126B1 (priority 2021, dated 2023).

Where two headings read alike, the source gives them in different places.

In test [1] the test system is HEK293 eTLR cells. Particulars: for HDR rates: compounds added 24 hours post-transfection, FACS 72 h after transfection, Figure 2A.
In test [2] the test system is HEK293 eTLR cells. Particulars: treated four hours before transfection; FACS 72 h after transfection; Figure 3.
For test [3], the system named is CRISPR-mediated homology-directed repair (HDR). Particulars: description of the known compound; cited from earlier work.

Take `Cc1cc2ncnn2cc1Nc1ncc2c(n1)n(C1CCOCC1)c(=O)n2C` [AZD-7648]: the HDR rates result in the test with HEK293 eTLR cells [1] is reported as “increased HDR rates”; with HEK293 eTLR cells [2], “significantly higher HDR rates than ITD Alt-R HDR Enhancer V2”. For the same molecule, the “concentration at which the HDR rates are maximally increased” value with HEK293 eTLR cells [1] (range tested 0.5 to 2 µM, Figure 2B) came out at 0.5 µM.

For the molecule `COc1ccc([C@@H](O)c2cc(-c3ncnc4cc(N5CCOCC5)ccc34)c(F)cc2Cl)nn1` [M3814], the results for the HDR rates entry in the test on HEK293 eTLR cells [1] and in the test on HEK293 eTLR cells [2] were “increased HDR rates” and “significantly higher HDR rates than ITD Alt-R HDR Enhancer V2”, respectively.

With `c1cnccn1` [SCR7 pyrazine], the “enhancement of CRISPR-mediated homology-directed repair (HDR)” value in test [3] is recorded as “up to 19 fold”.

With NU7441, the HDR rates result with HEK293 eTLR cells [1] is reported as “increased HDR rates”.
